From patent publication US12180187B2, “1-phenyl-5-azinylpyrazolyl-3-oxyalkyl acids and their use for controlling unwanted plant growth” (BAYER AKTIENGESELLSCHAFT, priority 2019, dated 2024)

Columns and labels:
VERPE = experiment: Pre-emergence action against VERPE, 1280 g/ha; format: in vivo, Veronica persica; settings: scored visually after about 3 weeks vs untreated controls (100% = plants have died)
Procedure, shortened: (§1)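 Visual percent-effect ratings (0% = like control, 100% = plants dead) were taken about 3 weeks after pre-emergence soil-surface application of WP/EC aqueous formulations with 0.5% additive, 600 L water/ha. Seeds were sown in sandy loam and grown in the greenhouse.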

KCHSC [1] = experiment: Pre-emergence action against KCHSC, 1280 g/ha; format: in vivo, Bassia scoparia; settings: scored visually after about 3 weeks vs untreated controls (100% = plants have died)
Procedure, shortened: as §1

PHBPU [2] = experiment: Post-emergence action at 320 g/ha against PHBPU; format: in vivo; settings: visual rating about 3 weeks after treatment vs untreated controls
From the text: (§2) Accordingly, the compounds of the invention have good herbicidal action against a broad spectrum of weed grasses and broad-leaved weeds and are therefore suitable for controlling unwanted vegetation by the post-emergence method. • b) Seeds of monocotyledonous and dicotyledonous weeds and crop plants are placed in sandy loam in plastic or organic planting pots, covered with soil and cultivated in a greenhouse under controlled growth conditions. 2 to 3 weeks after sowing, the test plants are treated at the one-leaf stage. The compounds of the invention, formulated in the form of wettable powders (WP) or as emulsion concentrates (EC), are then sprayed onto the green parts of the plants as aqueous suspension or emulsion with addition of 0.5% additive at a water application rate of 600 l/ha (converted). After the test plants have been kept in the greenhouse under optimum growth conditions for about 3 weeks, the activity of the preparations is rated visually in comparison to untreated controls. For example, 100% activity=the plants have died, 0% activity=like control plants. Tables 39 to 49 below show the effects of selected compounds of the general formula (I) according to Tables 1 and 2 on various harmful plants and at an application rate corresponding to 320 g/ha, which were obtained by the experimental procedure mentioned above.

POLCO = experiment: Post-emergence action at 320 g/ha against POLCO; format: in vivo, Fallopia convolvulus (Polygonum convolvulus); settings: visual rating about 3 weeks after treatment vs untreated controls
Procedure, shortened: (§3)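 Greenhouse pot plants in sandy loam received a foliar spray of WP- or EC-formulated compound at the one-leaf stage. Percent activity against untreated controls was assessed visually around three weeks later.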

AMARE = experiment: Post-emergence action at 320 g/ha against AMARE; format: in vivo, Amaranthus retroflexus; settings: visual rating about 3 weeks after treatment vs untreated controls
From the text: as §2

PHBPU [3] = experiment: Pre-emergence action at 320 g/ha against PHBPU; format: in vivo; settings: visual scoring after about 3 weeks vs untreated controls
Procedure, shortened: (§4)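 Weed and crop seeds sown in pots and covered with soil; WP or EC formulations sprayed pre-emergence onto the soil surface at 320 g/ha with 0.5% additive in 600 l/ha water. Kept in greenhouse; after about 3 weeks activity scored visually as % versus untreated controls (100% = plants dead, 0% = as control).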

MATIN [4] = experiment: Pre-emergence action at 320 g/ha against MATIN; format: in vivo, Tripleurospermum inodorum (Matricaria inodora); settings: visual scoring after about 3 weeks vs untreated controls
Procedure, shortened: as §4

SETVI = experiment: Post-emergence action at 320 g/ha against SETVI; format: in vivo, Setaria viridis; settings: visual rating about 3 weeks after treatment vs untreated controls
Procedure, shortened: as §3

MATIN [5] = experiment: Post-emergence action against MATIN, 1.28 kg/ha; format: in vivo, Tripleurospermum inodorum (Matricaria inodora); settings: dosage 1280 g/ha, visual rating about 3 weeks after treatment vs untreated controls (100% = plants died)
Procedure, shortened: (§5)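 Visual rating against untreated plants about 3 weeks after spraying gives % activity, where 0% means like controls and 100% means plants died. Plants were treated post-emergence at the one-leaf stage with compound formulated as wettable powder or emulsion concentrate, applied at 600 L water/ha plus 0.5% additive.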

ALOMY [6] = experiment: Pre-emergence action against ALOMY, 1280 g/ha; format: in vivo, Alopecurus myosuroides; settings: visual scoring after about 3 weeks vs untreated controls, 100% = plants have died, 0% = like control plants
Procedure, shortened: as §1

DIGSA = experiment: Pre-emergence action against DIGSA, 1280 g/ha; format: in vivo, Digitaria sanguinalis; settings: visual scoring after about 3 weeks vs untreated controls, 100% = plants have died, 0% = like control plants
Procedure, shortened: as §1

ALOMY [7] = experiment: Post-emergence action against ALOMY, 320 g/ha; format: in vivo, Alopecurus myosuroides; settings: dosage 320 g/ha, visual rating about 3 weeks after treatment vs untreated controls (100% = plants died)
Procedure, shortened: as §3

ECHCG = experiment: Post-emergence action against ECHCG, 1.28 kg/ha; format: in vivo, Echinochloa crus-galli; settings: dosage 1280 g/ha, visual rating about 3 weeks after treatment vs untreated controls
Procedure, shortened: as §5

KCHSC [8] = experiment: Post-emergence action against KCHSC, 1.28 kg/ha; format: in vivo, Bassia scoparia; settings: dosage 1280 g/ha, visual rating about 3 weeks after treatment vs untreated controls (100% = plants died)
Procedure, shortened: as §5

Compound	Pre-emergence action against VERPE (VERPE) [%]	Pre-emergence action against KCHSC (KCHSC [1]) [%]	Post-emergence action against PHBPU in % (PHBPU [2]) [%]	Post-emergence action against POLCO in % (POLCO) [%]	Post-emergence action against AMARE in % (AMARE) [%]	Pre-emergence action against PHBPU in % (PHBPU [3]) [%]	Pre-emergence action against MATIN in % (MATIN [4]) [%]	Post-emergence action against SETVI in % (SETVI) [%]	Post-emergence action against MATIN (MATIN [5]) [%]	Pre-emergence action against ALOMY (ALOMY [6]) [%]	Pre-emergence action against DIGSA (DIGSA) [%]	Post-emergence action against ALOMY (ALOMY [7]) [%]	Post-emergence action against ECHCG (ECHCG) [%]	Post-emergence action against KCHSC (KCHSC [8]) [%]
CN(C)S(=O)(=O)NC(=O)COc1nn(-c2ccccc2F)c(-c2ccc(F)nc2)c1Br [Example X-005]	100	90	80	80	80	90	100	90	100	100	100	90	100	
COC(=O)C(C)Oc1nn(-c2ccccc2)c(-c2ccc(F)nc2)c1Br (centres unmarked) [VII-014]	90	100		80	90			100		90	100	90	90	
CCOC(=O)COc1nn(-c2ccccc2F)c(-c2ccc(F)nc2)c1I [VII-036]	100		80				90	90	100	100	100	90	90	
O=C(O)COc1nn(-c2ccccc2F)c(-c2ccc(F)nc2)c1I [VII-037]	100		80				80	80	90	100	100	100	90	
COCCOC(=O)COc1nn(-c2ccccc2F)c(-c2ccc(F)nc2)c1Br [VII-052]	100		80				90		100	100	100	90	100	
COC(=O)[C@@H](C)Oc1nn(-c2cc(F)ccc2F)c(-c2ccc(F)nc2)c1Br [VII-062]	100	100	80				100			100	100	90	100	90
COC(=O)COc1nn(-c2cc(F)ccc2F)c(-c2ccc(F)nc2)c1Br [VII-089]	100		80		80	80	90		90	100	100	90	90	
O=C(COc1nn(-c2ccccc2F)c(-c2ccc(F)nc2)c1Br)OCC1OCCO1 [VII-103]	100		80				90	80	90	100	100	100	100	
COC(=O)[C@@H](C)Oc1nn(-c2cc(F)ccc2F)c(-c2cncc(F)c2)c1Br [VII-132]	100	100	90		90		90		90	100	100	90	100	100
COC(=O)[C@@H](C)Oc1nn(-c2cc(F)ccc2F)c(-c2cncc(F)c2)c1C#N [VII-147]	100	100	90				90	80	100	100	100	90	100	90
COC(=O)[C@@H](C)Oc1nn(-c2ccccc2F)c(-c2ccnc(F)c2)c1Br [VIII-006]	100	100			80	90	90	90	100	100	100	100	90	90
